Measurements from patent US7829524B2, “Antimicrobial peptides” (Novozymes Adenium Biotech A/S, priority 2003, dated 2010).
Read-outs that look alike come from different tables or passages of the source.

System: E. coli TOP10
Assay type: cell-based
Details: end point OD450, 14 hours
Protocol: A range of synthetic antimicrobial polypeptides were expressed in E. coli TOP10 (Invitrogen) using arabinose as inducer, as disclosed in Example 1 of International patent application WO 00/73433 (with minor modifications). […] Briefly, fresh overnight cultures grown in RM medium containing 0.2% glucose and ampicillin (100 μg/ml) were diluted 300-fold into 150 microliter of RM containing 0.2% glycerol and ampicillin (100 μg/ml) and different concentrations of arabinose (0, 0.01% or 0.1%) in a microtiter plate and incubated at 37 degrees Celsius with vigorous shaking. The growth curve was monitored by measuring OD450 using a Bioscreen C Microbiology reader (Thermo Electron Corporation) at intervals of 30 minutes for 14 hours (see Invitrogen protocol of the pBAD/gill A, B and C vectors catalogue nos. V450-01 for buffer and media composition). The percentage of growth inhibition was calculated as the end point OD measurement of each sample divided by the end point OD measurement obtained from cells containing the control vector and multiplied by 100. The formula is the following: [formula] where “blank OD” corresponds to the OD of an empty well.

Sequence: GLFKRLRKKIGKKLKKFGQKIKPLRKLVP (Synthetic antimicrobial peptide) [SEQ ID NO: 18]
- Growth inhibition using 0.1% arabinose (%) (Table 5): 94%

Sequence: GLFRRFGKKIGKKIIKKIGQKIKPIHKLVP (GLFRRFGKKIGKKLKKIGQKIKPIHKLVP; Synthetic antimicrobial peptide) [SEQ ID NO: 43]
- Growth inhibition using 0.1% arabinose (%) (Table 5): 76%

Sequence: GLFRRFGKKIGKKLKKIGQVIKALRILVP (Synthetic antimicrobial peptide) [SEQ ID NO: 39]
- Growth inhibition using 0.1% arabinose (%) (Table 5): 95%

Sequence: GLFRRFRRKIGKKLKKFGQKIKPLRKLVP (Synthetic antimicrobial peptide) [SEQ ID NO: 20]
- Growth inhibition using 0.1% arabinose (%) (Table 5): 97%

Sequence: GLFRRFWKKIGRKLKKIGQKIKPLQILVP (Synthetic antimicrobial peptide) [SEQ ID NO: 47]
- Growth inhibition using 0.1% arabinose (%) (Table 5): 79%

Sequence: GLFRRIRRKIGKKFKKFGQVIKPLRKLVP (Synthetic antimicrobial peptide) [SEQ ID NO: 52]
- Growth inhibition using 0.1% arabinose (%) (Table 5): 95%

Sequence: GLFRRLGKKIGKKIKKFGQVIKHIRILVP (GLFRRLGKKIGKKLKKFGQVIKHIRILVP; Synthetic antimicrobial peptide) [SEQ ID NO: 34]
- Growth inhibition using 0.1% arabinose (%) (Table 5): 92%

Sequence: GLFRRLGRKIGKKLKKIGQVIKHIRILVP (Synthetic antimicrobial peptide) [SEQ ID NO: 36]
- Growth inhibition using 0.1% arabinose (%) (Table 5): 95%

Sequence: GLFRRLKRKIGKKLKKIAR (Synthetic antimicrobial peptide) [SEQ ID NO: 65]
- Growth inhibition using 0.01% arabinose (%) (Table 6): 91%
- Growth inhibition using 0.1% arabinose (%) (Table 6): 99%

Sequence: GLFRRLKRKIGRKFKKIAR (Synthetic antimicrobial peptide) [SEQ ID NO: 60]
- Growth inhibition using 0.01% arabinose (%) (Table 6): 85%
- Growth inhibition using 0.1% arabinose (%) (Table 6): 99%

Sequence: GLFRRLRGKIGKKLKKIGQKIKAIRILVP (Synthetic antimicrobial peptide) [SEQ ID NO: 33]
- Growth inhibition using 0.1% arabinose (%) (Table 5): 91%

Sequence: GLFRRLRKKIGKKFKKIAR (Synthetic antimicrobial peptide) [SEQ ID NO: 69]
- Growth inhibition using 0.01% arabinose (%) (Table 6): 86%
- Growth inhibition using 0.1% arabinose (%) (Table 6): 99%

Sequence: GLFRRLRKKIGKKLKKIAR (Synthetic antimicrobial peptide) [SEQ ID NO: 64]
- Growth inhibition using 0.01% arabinose (%) (Table 6): 92%
- Growth inhibition using 0.1% arabinose (%) (Table 6): 99%

Sequence: GLFRRLRKKIGKKLKKIGQLIKAIRILVP (Synthetic antimicrobial peptide) [SEQ ID NO: 23]
- Growth inhibition using 0.1% arabinose (%) (Table 5): 97%

Sequence: GLFRRLRRKIGKKFKKFGQKIKPLRKLVP (Synthetic antimicrobial peptide) [SEQ ID NO: 46]
- Growth inhibition using 0.1% arabinose (%) (Table 5): 96%

Sequence: GLLKRFRGKIGKKLKKYGQLIKAIRILVP (Synthetic antimicrobial peptide) [SEQ ID NO: 22]
- Growth inhibition using 0.1% arabinose (%) (Table 5): 90%

Sequence: GLLKRLGRKIGKKFKKIAR (Synthetic antimicrobial peptide) [SEQ ID NO: 61]
- Growth inhibition using 0.01% arabinose (%) (Table 6): 89%
- Growth inhibition using 0.1% arabinose (%) (Table 6): 98%

Sequence: GLLKRLGRKIGKKLKKFGQKIKAIRKLVP (Synthetic antimicrobial peptide) [SEQ ID NO: 8]
- Growth inhibition using 0.01% arabinose (%) (Table 4): 97%
- Growth inhibition using 0.1% arabinose (%) (Table 4): 100%

Sequence: GLLKRLRKKIGKKLKKIGPKIKHIRKLVP (Synthetic antimicrobial peptide) [SEQ ID NO: 10]
- Growth inhibition using 0.01% arabinose (%) (Table 4): 93%
- Growth inhibition using 0.1% arabinose (%) (Table 4): 100%

Sequence: GLLKRLRKKIGKKLKKIGQKIKPIRKLVP (Synthetic antimicrobial peptide) [SEQ ID NO: 25]
- Growth inhibition using 0.1% arabinose (%) (Table 5): 94%

Sequence: GLLKRLRKKIGKKLKKIGQMIKHIRILVP (Synthetic antimicrobial peptide) [SEQ ID NO: 44]
- Growth inhibition using 0.1% arabinose (%) (Table 5): 93%

Sequence: GLLRRFGKKIGKKFKKYGQKIKNLRILVP (Synthetic antimicrobial peptide) [SEQ ID NO: 24]
- Growth inhibition using 0.1% arabinose (%) (Table 5): 92%

Sequence: GLLRRFGRKIGKKFKKFGPKIKHLRKLVP (Synthetic antimicrobial peptide) [SEQ ID NO: 26]
- Growth inhibition using 0.1% arabinose (%) (Table 5): 92%

Sequence: GLLRRFGRKIGKKFKKFGPKIKILRKLVP (GLLRRFGRKIGKKFKKFGPKIKHLRKLVP; Synthetic antimicrobial peptide) [SEQ ID NO: 19]
- Growth inhibition using 0.1% arabinose (%) (Table 5): 91%

Sequence: GLLRRFRBEIGKKLKKYGQKIKHLRKLVP (GLLRRFREKIGKKLKKYGQKIKHLRKLVP; Synthetic antimicrobial peptide) [SEQ ID NO: 45]
- Growth inhibition using 0.1% arabinose (%) (Table 5): 79%

Sequence: GLLRRFRKKIGEKFKKFGQKIKNIRILVP (Synthetic antimicrobial peptide) [SEQ ID NO: 55]
- Growth inhibition using 0.1% arabinose (%) (Table 5): 79%

Sequence: GLLRRFRKKIGGKLKKYGQIIKHLRILVP (Synthetic antimicrobial peptide) [SEQ ID NO: 5]
- Growth inhibition using 0.01% arabinose (%) (Table 4): 94%
- Growth inhibition using 0.1% arabinose (%) (Table 4): 100%

Sequence: GLLRRFRKKIGKKLKKITR (Synthetic antimicrobial peptide) [SEQ ID NO: 67]
- Growth inhibition using 0.01% arabinose (%) (Table 6): 90%
- Growth inhibition using 0.1% arabinose (%) (Table 6): 100%

Sequence: GLLRRFRKKIGKKLKKYGQKIKHLRILVP (Synthetic antimicrobial peptide) [SEQ ID NO: 57]
- Growth inhibition using 0.1% arabinose (%) (Table 5): 95%

Sequence: GLLRRFRNKIGKKLKKIGQKIKPIRKLVP (Synthetic antimicrobial peptide) [SEQ ID NO: 50]
- Growth inhibition using 0.1% arabinose (%) (Table 5): 92%

Sequence: GLLRRFRRKIGRKLKKYGLMIKPLRKLVP (Synthetic antimicrobial peptide) [SEQ ID NO: 21]
- Growth inhibition using 0.1% arabinose (%) (Table 5): 94%

Sequence: GLLRRFWMKIGGKLKKFGQMIKHLRKLVP (Synthetic antimicrobial peptide) [SEQ ID NO: 11]
- Growth inhibition using 0.01% arabinose (%) (Table 4): 92%
- Growth inhibition using 0.1% arabinose (%) (Table 4): 99%

Sequence: GLLRRIIGKKIGKKFKKCGQVIKAIRILVP (GLLRRLGKKIGKKFKKCGQVIKAIRILVP; Synthetic antimicrobial peptide) [SEQ ID NO: 54]
- Growth inhibition using 0.1% arabinose (%) (Table 5): 89%

Sequence: GLLRRLGKKIGKKFKKFGQVIKALRILVP (Synthetic antimicrobial peptide) [SEQ ID NO: 35]
- Growth inhibition using 0.1% arabinose (%) (Table 5): 95%

Sequence: GLLRRLGRKIGKKLKKIGQKIKAIRILVP (Synthetic antimicrobial peptide) [SEQ ID NO: 49]
- Growth inhibition using 0.1% arabinose (%) (Table 5): 96%

Sequence: GLLRRLRGKIGKKLKKIGQKIKAIRKLVP (Synthetic antimicrobial peptide) [SEQ ID NO: 4]
- Growth inhibition using 0.01% arabinose (%) (Table 4): 89%
- Growth inhibition using 0.1% arabinose (%) (Table 4): 100%

Sequence: GLLRRLRKKIEKKLKKYGPKIKALRKLVP (Synthetic antimicrobial peptide) [SEQ ID NO: 37]
- Growth inhibition using 0.1% arabinose (%) (Table 5): 94%

Sequence: GLLRRLRKKIGKKLKFFGQKIKHIRILVP (GLLRRLRKKIGKKLKKFGQKIKHIRILVP; Synthetic antimicrobial peptide) [SEQ ID NO: 7]
- Growth inhibition using 0.01% arabinose (%) (Table 4): 93%
- Growth inhibition using 0.1% arabinose (%) (Table 4): 100%

Sequence: GLLRRLRKKIGKKLKKIGQKIKPIRKLVP (Synthetic antimicrobial peptide) [SEQ ID NO: 56]
- Growth inhibition using 0.1% arabinose (%) (Table 5): 94%

Sequence: GLLRRLRKKIGKKLKKITR (Synthetic antimicrobial peptide) [SEQ ID NO: 63]
- Growth inhibition using 0.01% arabinose (%) (Table 6): 95%
- Growth inhibition using 0.1% arabinose (%) (Table 6): 99%

Sequence: GLLRRLRKKIGRKFKKIAR (Synthetic antimicrobial peptide) [SEQ ID NO: 68]
- Growth inhibition using 0.01% arabinose (%) (Table 6): 91%
- Growth inhibition using 0.1% arabinose (%) (Table 6): 100%

Sequence: GLLRRLRNKIRKKLKKFGQKIKAIRILVP (Synthetic antimicrobial peptide) [SEQ ID NO: 16]
- Growth inhibition using 0.01% arabinose (%) (Table 4): 96%
- Growth inhibition using 0.1% arabinose (%) (Table 4): 100%

Sequence: GLLRRLRRKIGGKLKKFGQKIKPLRKLVP (Synthetic antimicrobial peptide) [SEQ ID NO: 6]
- Growth inhibition using 0.01% arabinose (%) (Table 4): 92%
- Growth inhibition using 0.1% arabinose (%) (Table 4): 100%

Sequence: GLLRRLRRKIGKKFKKIGQVIKHLRKLVP (Synthetic antimicrobial peptide) [SEQ ID NO: 32]
- Growth inhibition using 0.1% arabinose (%) (Table 5): 97%

Sequence: GLLRRLRRKIGKKLKKFGQKIKHIRILVP (Synthetic antimicrobial peptide) [SEQ ID NO: 15]
- Growth inhibition using 0.01% arabinose (%) (Table 4): 96%
- Growth inhibition using 0.1% arabinose (%) (Table 4): 100%

Sequence: GLLRRLWKKIGRKFKKYGQVIKHIRKLVP (Synthetic antimicrobial peptide) [SEQ ID NO: 48]
- Growth inhibition using 0.1% arabinose (%) (Table 5): 97%

Sequence: GLVRRFRRKIGKKLKKIGQIIKAIRKLVP (Synthetic antimicrobial peptide) [SEQ ID NO: 31]
- Growth inhibition using 0.1% arabinose (%) (Table 5): 96%

Sequence: GRFKRFWKKIGRKFKKIGQMLKPIRILVP (Synthetic antimicrobial peptide) [SEQ ID NO: 9]
- Growth inhibition using 0.01% arabinose (%) (Table 4): 96%
- Growth inhibition using 0.1% arabinose (%) (Table 4): 100%

Sequence: GRFKRLRKKIGKKFKKIGQKIKDIRKLIVP (GRFKRLRKKIGKKFKKIGQKIKDIRKLVP; Synthetic antimicrobial peptide) [SEQ ID NO: 51]
- Growth inhibition using 0.1% arabinose (%) (Table 5): 97%

Sequence: GRFRRFRKKIGGKLKKIGQVIKDIRILVP (Synthetic antimicrobial peptide) [SEQ ID NO: 28]
- Growth inhibition using 0.1% arabinose (%) (Table 5): 95%

Sequence: GRFRRFRKKIGKKFKKFGQMIKALRILVP (Synthetic antimicrobial peptide) [SEQ ID NO: 29]
- Growth inhibition using 0.1% arabinose (%) (Table 5): 95%
